Measured values: patent publication US8808743B2, “Benzonatate compositions and methods of use” (priority 2010, dated 2014)

Assay: Simulated buccal dissolution testing (stirred flow-thru cell, simulated saliva)
Assay type: physicochemical
Settings: 8 mg dose
Text: Most USP dissolution tests use large volumes of media—defined as ‘sink conditions’; the aim is to get complete dissolution of the active ingredient. […] They are: • Small volume • Short residence time • Solids transfer • Composition • Incomplete dissolution
For buccal dissolution the volume of saliva is very small compared to that of the stomach and the residence time in the mouth is also very short, the bulk of the dosage form being swallowed within a minute. The dissolution test used here employed procedures and a buccal dissolution apparatus devised by DOW Chemical described in U.S. Pat. No. 7,470,545 B2 herein incorporated by reference to the extent not incompatible herewith.
In order for this test to give meaningful results it is necessary to use a dissolution media that simulates saliva. There is no USP recommended simulated saliva, so the composition used in these studies was based on published ranges. The composition used is shown below:
The technique uses a stirred flow-thru cell with a very short residence time. The buccal dissolution test was set up using simulated saliva, with a liquid volume in the cell of 9 ml, and a flow rate of 5.3 ml/min (2.7 ml/min thru the dip tube to waste, and 2.6 ml/min thru the filter and the in-line UV cell). UV cell path length was 1 mm. The tests were run at room temperature
Buccal dissolution studies were carried out with neat Formosa benzonatate (abbreviated below as “Benz”) and benzonatate resinates prepared from this benzonatate. Preparation of the resinates was at room temperature for 40 hours by the procedure described in Example 2.
Dissolution data were obtained at several benzonatate dosages for both the neat benzonatate and the resinates, and the data were normalized to a dosage of 8 mg. The normalized benzonatate dissolution data are given in Table VII and are plotted as a function of time in FIG. 6.

CCCCNc1ccc(C(=O)OCCOCCOCCOCCOCCOCCOCCOCCOCCOC)cc1 [BENZ, benzonatate]
Benzonatate Conc. In Effluent (0 sec): 0 mg/L | Benzonatate Conc. In Effluent (5 sec): 0 mg/L | Benzonatate Conc. In Effluent (10 sec): 0 mg/L | Benzonatate Conc. In Effluent (15 sec): 37.3 mg/L | Cumulative Benzonatate Released (15 sec): 0.008 mg | Benzonatate Conc. In Effluent (20 sec): 192.8 mg/L | Cumulative Benzonatate Released (20 sec): 0.059 mg | Benzonatate Conc. In Effluent (25 sec): 353.0 mg/L | Cumulative Benzonatate Released (25 sec): 0.180 mg | Benzonatate Conc. In Effluent (30 sec): 473.4 mg/L | Cumulative Benzonatate Released (30 sec): 0.362 mg | Benzonatate Conc. In Effluent (35 sec): 544.2 mg/L | Cumulative Benzonatate Released (35 sec): 0.587 mg | Benzonatate Conc. In Effluent (40 sec): 574.7 mg/L | Cumulative Benzonatate Released (40 sec): 0.834 mg | Benzonatate Conc. In Effluent (45 sec): 585.5 mg/L | Cumulative Benzonatate Released (45 sec): 1.090 mg | Benzonatate Conc. In Effluent (50 sec): 573.6 mg/L | Cumulative Benzonatate Released (50 sec): 1.346 mg | Benzonatate Conc. In Effluent (55 sec): 559.0 mg/L | Cumulative Benzonatate Released (55 sec): 1.596 mg | Benzonatate Conc. In Effluent (60 sec): 541.7 mg/L | Cumulative Benzonatate Released (60 sec): 1.839 mg | Benzonatate Conc. In Effluent (65 sec): 519.6 mg/L | Cumulative Benzonatate Released (65 sec): 2.074 mg | Benzonatate Conc. In Effluent (70 sec): 498.0 mg/L | Cumulative Benzonatate Released (70 sec): 2.298 mg | Benzonatate Conc. In Effluent (75 sec): 480.4 mg/L | Cumulative Benzonatate Released (75 sec): 2.514 mg | Benzonatate Conc. In Effluent (80 sec): 460.2 mg/L | Cumulative Benzonatate Released (80 sec): 2.722 mg | Benzonatate Conc. In Effluent (85 sec): 439.9 mg/L | Cumulative Benzonatate Released (85 sec): 2.921 mg | Benzonatate Conc. In Effluent (90 sec): 421.8 mg/L | Cumulative Benzonatate Released (90 sec): 3.111 mg | Benzonatate Conc. In Effluent (95 sec): 403.2 mg/L | Cumulative Benzonatate Released (95 sec): 3.293 mg | Benzonatate Conc. In Effluent (100 sec): 387.3 mg/L | Cumulative Benzonatate Released (100 sec): 3.468 mg | Benzonatate Conc. In Effluent (105 sec): 369.4 mg/L | Cumulative Benzonatate Released (105 sec): 3.635 mg | Benzonatate Conc. In Effluent (110 sec): 353.5 mg/L | Cumulative Benzonatate Released (110 sec): 3.795 mg | Benzonatate Conc. In Effluent (115 sec): 337.8 mg/L | Cumulative Benzonatate Released (115 sec): 3.947 mg | Benzonatate Conc. In Effluent (120 sec): 323.0 mg/L | Cumulative Benzonatate Released (120 sec): 4.093 mg | Benzonatate Conc. In Effluent (125 sec): 308.9 mg/L | Cumulative Benzonatate Released (125 sec): 4.233 mg | Benzonatate Conc. In Effluent (130 sec): 294.9 mg/L | Cumulative Benzonatate Released (130 sec): 4.366 mg | Benzonatate Conc. In Effluent (135 sec): 282.2 mg/L | Cumulative Benzonatate Released (135 sec): 4.494 mg | Benzonatate Conc. In Effluent (140 sec): 269.8 mg/L | Cumulative Benzonatate Released (140 sec): 4.615 mg | Benzonatate Conc. In Effluent (145 sec): 257.6 mg/L | Cumulative Benzonatate Released (145 sec): 4.732 mg | Benzonatate Conc. In Effluent (150 sec): 246.0 mg/L | Cumulative Benzonatate Released (150 sec): 4.843 mg | Benzonatate Conc. In Effluent (155 sec): 235.2 mg/L | Cumulative Benzonatate Released (155 sec): 4.949 mg | Benzonatate Conc. In Effluent (160 sec): 224.7 mg/L | Cumulative Benzonatate Released (160 sec): 5.051 mg | Benzonatate Conc. In Effluent (165 sec): 214.7 mg/L | Cumulative Benzonatate Released (165 sec): 5.148 mg | Benzonatate Conc. In Effluent (170 sec): 205.2 mg/L | Cumulative Benzonatate Released (170 sec): 5.241 mg | Benzonatate Conc. In Effluent (175 sec): 195.8 mg/L | Cumulative Benzonatate Released (175 sec): 5.329 mg | Benzonatate Conc. In Effluent (180 sec): 187.1 mg/L | Cumulative Benzonatate Released (180 sec): 5.414 mg | Benzonatate Conc. In Effluent (185 sec): 178.8 mg/L | Cumulative Benzonatate Released (185 sec): 5.495 mg | Benzonatate Conc. In Effluent (190 sec): 170.9 mg/L | Cumulative Benzonatate Released (190 sec): 5.572 mg | Benzonatate Conc. In Effluent (195 sec): 163.1 mg/L | Cumulative Benzonatate Released (195 sec): 5.646 mg | Benzonatate Conc. In Effluent (200 sec): 155.8 mg/L | Cumulative Benzonatate Released (200 sec): 5.716 mg | Benzonatate Conc. In Effluent (205 sec): 148.8 mg/L | Cumulative Benzonatate Released (205 sec): 5.783 mg | Benzonatate Conc. In Effluent (210 sec): 142.0 mg/L | Cumulative Benzonatate Released (210 sec): 5.848 mg | Benzonatate Conc. In Effluent (215 sec): 135.6 mg/L | Cumulative Benzonatate Released (215 sec): 5.909 mg | Benzonatate Conc. In Effluent (220 sec): 129.6 mg/L | Cumulative Benzonatate Released (220 sec): 5.967 mg | Benzonatate Conc. In Effluent (225 sec): 123.7 mg/L | Cumulative Benzonatate Released (225 sec): 6.023 mg | Benzonatate Conc. In Effluent (230 sec): 118.3 mg/L | Cumulative Benzonatate Released (230 sec): 6.077 mg | Benzonatate Conc. In Effluent (235 sec): 112.9 mg/L | Cumulative Benzonatate Released (235 sec): 6.128 mg | Benzonatate Conc. In Effluent (240 sec): 107.8 mg/L | Cumulative Benzonatate Released (240 sec): 6.177 mg | Benzonatate Conc. In Effluent (245 sec): 102.9 mg/L | Cumulative Benzonatate Released (245 sec): 6.223 mg | Benzonatate Conc. In Effluent (250 sec): 98.3 mg/L | Cumulative Benzonatate Released (250 sec): 6.268 mg | Benzonatate Conc. In Effluent (255 sec): 93.7 mg/L | Cumulative Benzonatate Released (255 sec): 6.310 mg | Benzonatate Conc. In Effluent (260 sec): 89.7 mg/L | Cumulative Benzonatate Released (260 sec): 6.350 mg | Benzonatate Conc. In Effluent (265 sec): 85.6 mg/L | Cumulative Benzonatate Released (265 sec): 6.389 mg | Benzonatate Conc. In Effluent (270 sec): 81.8 mg/L | Cumulative Benzonatate Released (270 sec): 6.426 mg | Benzonatate Conc. In Effluent (275 sec): 78.0 mg/L | Cumulative Benzonatate Released (275 sec): 6.461 mg | Benzonatate Conc. In Effluent (280 sec): 74.5 mg/L | Cumulative Benzonatate Released (280 sec): 6.495 mg | Benzonatate Conc. In Effluent (285 sec): 71.3 mg/L | Cumulative Benzonatate Released (285 sec): 6.527 mg | Benzonatate Conc. In Effluent (290 sec): 68.1 mg/L | Cumulative Benzonatate Released (290 sec): 6.558 mg | Benzonatate Conc. In Effluent (295 sec): 64.8 mg/L | Cumulative Benzonatate Released (295 sec): 6.587 mg | Benzonatate Conc. In Effluent (300 sec): 61.6 mg/L | Cumulative Benzonatate Released (300 sec): 6.615 mg
